Data on 24 molecules can be found in ChEMBL document CHEMBL3217639, “Property based optimisation of glucokinase activators discovery of the phase IIb clinical candidate AZD1656” (Medchemcomm, 2012).

One data set has as its system Salmonella typhimurium. Description: Genotoxicity in Salmonella typhimurium by Ames test. Type of data set: toxicity, organism-based. The conditions noted are these: salmonella enterica subsp. enterica serovar typhimurium. For orientation: The Ames test uses bacterial strains that need an amino acid and regain growth without it when mutated back.
Data set [1] is described as follows: Crystalline solubility of the compound. Format: physicochemical.
The next data set concerns the target T1, Hexokinase-4 (Homo sapiens, UniProt P35557).
T1 sequence (P35557 whole entry): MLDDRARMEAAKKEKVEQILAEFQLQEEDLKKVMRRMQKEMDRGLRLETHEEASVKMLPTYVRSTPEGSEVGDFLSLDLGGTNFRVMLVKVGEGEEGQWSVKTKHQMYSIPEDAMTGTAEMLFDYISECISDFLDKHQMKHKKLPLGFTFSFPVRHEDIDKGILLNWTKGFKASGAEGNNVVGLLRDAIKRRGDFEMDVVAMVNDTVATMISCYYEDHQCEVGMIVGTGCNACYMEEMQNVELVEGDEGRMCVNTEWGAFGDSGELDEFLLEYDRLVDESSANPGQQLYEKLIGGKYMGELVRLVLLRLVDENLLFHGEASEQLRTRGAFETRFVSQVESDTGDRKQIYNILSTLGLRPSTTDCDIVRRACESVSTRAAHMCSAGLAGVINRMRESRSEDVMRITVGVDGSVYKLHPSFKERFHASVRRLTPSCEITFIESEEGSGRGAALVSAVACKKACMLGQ
Description: […] of recombinant human pancreatic glucokinase by G-6-P dehydrogenase assay.

Data set [2] is described as follows: Apparent permeability from apical to basolateral side in MDCK cells expressing human MDR1. Format: ADME, cell-based, Canis lupus familiaris. The conditions noted are these: dog.
Data set [3] in a line: Lipophilicity, log D of the compound. Type of data set: physicochemical. The conditions noted are these: octanol/water.
In data set [4] the target is Voltage-gated inwardly rectifying potassium channel KCNH2 (Homo sapiens, UniProt Q12809).
For another data set, the species on record is Canis familiaris. Description: Unbound clearance in dog. Type of data set: ADME, organism-based, Canis lupus familiaris. The conditions noted are these: in vivo.
Data set [5] in a line: Oral bioavailability in dog. Format: ADME, organism-based, Canis lupus familiaris. The note with it: in vivo.
In data set [6] the test system is Rattus norvegicus. Put plainly: Antidiabetic activity in high fat fed Zucker rat assessed as reduction of AUC of plasma glucose level at 1 mg/kg by oral glucose tolerance test. More on the design: scale not given: the % may be the effect or the level left. Format: functional.
Data set [7] in a line: Clearance in rat. Format: ADME, organism-based. The note with it: in vivo.
Data set [8] in a line: Volume of distribution at steady state in rat. Type of data set: ADME, organism-based. The conditions noted are these: in vivo, read-out: Vdss.
Data set [9] in a line: Oral bioavailability in rat. Type of data set: ADME, organism-based. The conditions noted are these: in vivo.
Data set [10] can be described thus: Clearance in dog. Format: ADME, organism-based, Canis lupus familiaris. The conditions noted are these: in vivo.
Data set [11] can be described thus: Volume of distribution at steady state in dog. Type of data set: ADME, organism-based, Canis lupus familiaris. The note with it: in vivo, read-out: Vdss.
Data set [12] is filed under the species Rattus norvegicus. Description: Unbound clearance in rat. Type of data set: ADME, organism-based. The conditions noted are these: in vivo.
Data set [13] relates to Rattus norvegicus. Put plainly: Antidiabetic activity in high fat fed Zucker rat assessed as reduction of AUC of plasma glucose level at 3 mg/kg by oral glucose tolerance test. Format: functional. More on the design: scale not given: the % may be the effect or the level left.

For orientation: solubility (thermodynamic) means solubility found after equilibrating the solid with the medium. As a reminder, the EC50 is the concentration that produces a half-maximal response. The term Papp A→B denotes how fast a substance crosses the layer from the apical side. For orientation: logD means lipophilicity at a set pH, counting ionised and neutral species. One may read the IC50 as the point on the concentration scale where inhibition reaches its midpoint. In general, bioavailability refers to the share of a dose that reaches the circulation, judged against a reference dose that is usually intravenous. As usually defined, the clearance is the rate of elimination divided by the concentration.

Values after ≈ are worked out from the molar mass of the structure shown.

Sequence of Voltage-gated inwardly rectifying potassium channel KCNH2 (Q12809 whole entry): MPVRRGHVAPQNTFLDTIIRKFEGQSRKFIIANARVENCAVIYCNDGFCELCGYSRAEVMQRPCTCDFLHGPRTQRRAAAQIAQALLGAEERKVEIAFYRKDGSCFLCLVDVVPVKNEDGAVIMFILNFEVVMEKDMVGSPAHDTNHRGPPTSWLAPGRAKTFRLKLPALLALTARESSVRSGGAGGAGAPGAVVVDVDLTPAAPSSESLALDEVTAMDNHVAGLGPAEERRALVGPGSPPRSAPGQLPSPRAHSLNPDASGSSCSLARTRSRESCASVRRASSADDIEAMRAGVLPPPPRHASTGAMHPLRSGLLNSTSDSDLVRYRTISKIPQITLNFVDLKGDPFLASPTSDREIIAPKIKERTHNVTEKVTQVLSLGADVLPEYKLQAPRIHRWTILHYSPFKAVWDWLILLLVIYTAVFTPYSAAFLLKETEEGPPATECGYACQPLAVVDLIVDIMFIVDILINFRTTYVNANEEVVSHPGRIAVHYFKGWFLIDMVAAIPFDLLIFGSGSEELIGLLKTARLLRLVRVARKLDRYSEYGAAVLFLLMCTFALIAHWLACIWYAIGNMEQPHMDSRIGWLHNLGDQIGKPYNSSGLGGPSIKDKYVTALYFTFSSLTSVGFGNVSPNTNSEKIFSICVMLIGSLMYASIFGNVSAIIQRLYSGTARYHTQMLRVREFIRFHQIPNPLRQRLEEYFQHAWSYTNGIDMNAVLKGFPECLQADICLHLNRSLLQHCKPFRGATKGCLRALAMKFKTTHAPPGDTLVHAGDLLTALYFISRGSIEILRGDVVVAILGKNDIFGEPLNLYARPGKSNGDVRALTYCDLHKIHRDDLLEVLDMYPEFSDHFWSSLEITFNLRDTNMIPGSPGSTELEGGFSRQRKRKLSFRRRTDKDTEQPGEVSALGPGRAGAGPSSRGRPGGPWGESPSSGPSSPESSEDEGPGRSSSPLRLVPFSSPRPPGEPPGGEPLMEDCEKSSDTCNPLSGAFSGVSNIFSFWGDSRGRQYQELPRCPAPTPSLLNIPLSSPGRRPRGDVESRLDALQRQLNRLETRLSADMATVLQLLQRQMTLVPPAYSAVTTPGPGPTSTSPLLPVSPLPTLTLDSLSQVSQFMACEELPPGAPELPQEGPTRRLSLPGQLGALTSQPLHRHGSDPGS

For `Cc1nsc(N)n1`, the Activity entry in the data set on Salmonella typhimurium was “Non-toxic”.

With `Cn1ccc(NC(=O)c2cc(Oc3ccc(C(=O)N4CCC4)cc3)cc(OC3CCOCC3)c2)n1`, the thermodynamic solubility in [1] amounted to 170 µM (≈ 81 µg/mL). In addition, the half-maximal effective concentration (EC50) at Hexokinase-4 was 170 nM.

Consider `CC(C)n1ccc(N)n1`, for which the Activity result in the data set with Salmonella typhimurium was “Toxic”.

In the case of `COC[C@H](C)Oc1cc(Oc2ccc(C(=O)N3CCC3)nc2)cc(C(=O)Nc2cnc(C)cn2)c1`, the Papp A→B in data set [2] was determined as 18 ×10⁻⁶ cm/s. For the same molecule, the thermodynamic solubility in data set [1] came to 21 µM (≈ 10 µg/mL). For the same molecule, the logD in [3] came to 2.9. Further, on Hexokinase-4, the EC50 came out at 36 nM. In data set [4], this molecule displayed an IC50 of 40000 nM.

With `COC[C@H](C)Oc1cc(Oc2ncc(C(=O)N3CCC3)cc2Cl)cc(C(=O)Nc2cnc(C)cn2)c1`, the thermodynamic solubility in data set [1] is 8 µM (≈ 4.1 µg/mL). Further, the logD in data set [3] is 2.8. The EC50 at Hexokinase-4 worked out at 60 nM.

`CC(C)n1ccc(NC(=O)c2cc(Oc3ccc(C(=O)N4CCC4)cc3)cc(O[C@@H](C)CO)c2)n1` came in with a solubility (thermodynamic) in [1] of 44 µM (≈ 21.1 µg/mL). The molecule further returned a logD in data set [3] of 2.8. Further, the EC50 on Hexokinase-4 is 73 nM. In data set [4], the IC50 was 31000 nM.

On to `COC[C@H](C)Oc1cc(Oc2ccc(C(=O)N3CCC3)cn2)cc(C(=O)Nc2cnc(C)cn2)c1`, for which, on Hexokinase-4, the EC50 worked out at 370 nM.

For the molecule `C[C@@H](CO)Oc1cc(Oc2ccc(C(=O)N3CCC3)cc2)cc(C(=O)Nc2nccs2)c1`, the thermodynamic solubility in data set [1] came out at 9 µM (≈ 4.08 µg/mL). This molecule also registered a pH-dependent lipophilicity (logD) in data set [3] of 3.1. The EC50 on Hexokinase-4 amounted to 32 nM. It took 9000 nM to reach half-maximal inhibition in data set [4] (IC50).

With `CCn1ccc(N)n1`, the Activity entry in the data set on Salmonella typhimurium was “Toxic”.

As for `Nc1nccs1` [AMINOTHIAZOLE], the Activity result with Salmonella typhimurium was “Non-toxic”.

Consider `COC[C@H](C)Oc1cc(Oc2cnc(C(=O)N3CCC3)cn2)cc(C(=O)Nc2cnc(C)cn2)c1` [AZD-1656], for which the Papp A→B in [2] was determined as 35 ×10⁻⁶ cm/s. For the same molecule, the CL free was 50 mL/min/kg in the data set listed under Canis familiaris and 310 mL/min/kg in the data set filed under Rattus norvegicus [12]. The bioavailability in [5] and in [9] was 100% each time. Moreover, the Activity in the data set with Rattus norvegicus [6] amounted to 43%. In addition, the solubility (thermodynamic) in data set [1] came to 280 µM (≈ 134 µg/mL). Further, the clearance was found to be 16 mL/min/kg in [7] and 8.1 mL/min/kg in data set [10]. The molecule also had a log distribution coefficient (logD) in data set [3] of 2.4. Further, the 50% effective concentration (EC50) on Hexokinase-4 was found to be 61 nM. Further, the Vd turned out to be 0.5 L/kg in data set [8] and 1.5 L/kg in [11]. In [4], this molecule registered a concentration for half-maximal inhibition (IC50) of over 100000 nM.

Regarding `Cc1cnc(NC(=O)c2cc(Oc3ccc(C(=O)N4CCC4)cc3)cc(O[C@@H](C)CO)c2)cn1`, the Papp A→B in data set [2] came to 4.1 ×10⁻⁶ cm/s. In addition, the thermodynamic solubility in [1] was found to be 17 µM (≈ 7.86 µg/mL). This molecule also displayed a logD in [3] of 2.4. For the same molecule, the EC50 at Hexokinase-4 stood at 61 nM. In data set [4], this molecule gave an IC50 of 38000 nM.

With `Cn1ccc(NC(=O)c2cc(Oc3ccc(C(=O)N4CCC4)cc3)cc(O[C@H]3CCOC3)c2)n1`, the Papp A→B in data set [2] is 6.4 ×10⁻⁶ cm/s. Besides, the solubility (thermodynamic) in data set [1] came to 180 µM (≈ 83.3 µg/mL). In addition, the logD in data set [3] amounted to 2.2. Moreover, the EC50 at Hexokinase-4 stood at 70 nM.

For `C[C@@H](CO)Oc1cc(Oc2ccc(C(=O)N3CCC3)cc2)cc(C(=O)Nc2cc[nH]n2)c1`, in data set [2], the Papp A→B is 0.8 ×10⁻⁶ cm/s. In data set [1], this molecule registered a solubility (thermodynamic) of 670 µM (≈ 292 µg/mL). Further, the logD in data set [3] is 2. Moreover, on Hexokinase-4, the EC50 came to 53 nM. Further, the IC50 in [4] is over 100000 nM.

In the case of `Cn1ccc(N)n1`, in the data set with Salmonella typhimurium, the Activity result is given as “Toxic”.

As for `Cc1cnc(N)cn1`, in the data set with Salmonella typhimurium, the Activity result is reported as “Non-toxic”.

As to `C[C@@H](CO)Oc1cc(Oc2ccc(C(=O)N3CCC3)cc2)cc(C(=O)Nc2ccn(C)n2)c1`, in the data set with Rattus norvegicus [13], the Activity was 24%. Further, the Papp A→B in data set [2] was found to be 1.2 ×10⁻⁶ cm/s. Besides, the CL free came out at 61 mL/min/kg in the data set listed under Canis familiaris and 480 mL/min/kg in the data set filed under Rattus norvegicus [12]. This molecule yielded a thermodynamic solubility in data set [1] of 350 µM (≈ 158 µg/mL).

For `Cc1nsc(NC(=O)c2cc(Oc3ccc(C(=O)N4CCC4)cc3)cc(O[C@@H](C)CO)c2)n1`, the apical-to-basolateral permeability (Papp A→B) in [2] worked out at 5.2 ×10⁻⁶ cm/s. Besides, the thermodynamic solubility in data set [1] is 17 µM (≈ 7.97 µg/mL). Besides, the pH-dependent lipophilicity (logD) in [3] is 2.7. Moreover, on Hexokinase-4, the EC50 is 35 nM. This molecule yielded an IC50 in data set [4] of 11000 nM.

Regarding `Cn1ccc(NC(=O)c2cc(Oc3ccc(C(=O)N4CCC4)cc3)cc(OC(CF)CF)c2)n1`, the Papp A→B in data set [2] was 7 ×10⁻⁶ cm/s. For the same molecule, the thermodynamic solubility in data set [1] was found to be 11 µM (≈ 5.18 µg/mL). This molecule displayed a pH-dependent lipophilicity (logD) in data set [3] of 2.6. The EC50 on Hexokinase-4 stood at 47 nM.

Regarding `CC(C)Oc1cc(Oc2ccc(C(=O)N3CCC3)cc2)cc(C(=O)Nc2ccn(C)n2)c1`, the solubility (thermodynamic) in data set [1] came to 125 µM (≈ 54.3 µg/mL). Also, in data set [3], the log distribution coefficient (logD) worked out at 3.3. Also, the 50% effective concentration (EC50) on Hexokinase-4 was 110 nM. The same molecule yielded a 50% inhibitory concentration (IC50) in [4] of 27000 nM.

Regarding `Nc1cc[nH]n1`, in the data set on Salmonella typhimurium, the Activity result is listed as “Non-toxic”.

In the case of `COC[C@H](C)Oc1cc(Oc2ccc(C(=O)N3CCC3)cc2)cc(C(=O)Nc2ccn(C)n2)c1`, in data set [2], the apparent permeability from apical to basolateral (Papp A→B) is 12 ×10⁻⁶ cm/s. Besides, the solubility (thermodynamic) in data set [1] is 490 µM (≈ 228 µg/mL). In addition, the log distribution coefficient (logD) in data set [3] worked out at 2.5. On Hexokinase-4, the concentration giving a half-maximal response (EC50) is 37 nM.

Take `CCn1ccc(NC(=O)c2cc(Oc3ccc(C(=O)N4CCC4)cc3)cc(O[C@@H](C)CO)c2)n1`: the Papp A→B in data set [2] was 1.6 ×10⁻⁶ cm/s. Also, in [1], the solubility (thermodynamic) was 280 µM (≈ 130 µg/mL). The logD in [3] was found to be 2.4. In addition, the EC50 on Hexokinase-4 came out at 31 nM.

Regarding `COC[C@H](C)Oc1cc(Oc2ccc(C(=O)N3CCC3)cc2)cc(C(=O)Nc2cnc(C)cn2)c1`, the Papp A→B in data set [2] worked out at 29 ×10⁻⁶ cm/s. This molecule also yielded a solubility (thermodynamic) in data set [1] of 30 µM (≈ 14.3 µg/mL). This molecule also gave a pH-dependent lipophilicity (logD) in [3] of 2.9. Also, on Hexokinase-4, the half-maximal effective concentration (EC50) is 73 nM.
